The record followed here is patent US20240148821A1, “PHARMACEUTICAL USE OF CYCLIC PEPTIDE COMPOUND” (CHUGAI SEIYAKU KABUSHIKI KAISHA, priority 2021, published 2024).

Numbered stars: 1 amine (or outer) side, 2 acyl side, 3 side chain; on linkers, the order of the positions; unused ones are H or OH. Bridge positions count the residues as written; N and C are the ends. Square brackets hold non-standard residues; d marks the D form. Peptide text beside a SMILES is read from it. * marks the point of attachment. hPhe(3-Cl-4-CF3) = N[C@@H](CCc1ccc(C(F)(F)F)c(Cl)c1)C(=O)O; X49 = CN([C@@H](Cc1cccc(OC(F)(F)F)c1)C(=O)[*:2])[*:1]; NMePhe(4-Cl) = CN[C@@H](Cc1ccc(Cl)cc1)C(=O)O; NMePhe(4-Me) = CN[C@@H](Cc1ccc(C)cc1)C(=O)O; hNle(7,7-F2) = N[C@@H](CCCCC(F)F)C(=O)O; NMeGly(cPent) = CN[C@H](C(=O)O)C1CCCC1; Phe(3-I) = N[C@@H](Cc1cccc(I)c1)C(=O)O; Phe(4-F) = N[C@@H](Cc1ccc(F)cc1)C(=O)O; Phe(2-F) = N[C@@H](Cc1ccccc1F)C(=O)O; NMeY = CN[C@@H](Cc1ccc(O)cc1)C(=O)O; NMeCha = CN[C@@H](CC1CCCCC1)C(=O)O; NMeGly(cPr) = CN[C@H](C(=O)O)C1CC1; NMeChg = CN[C@H](C(=O)O)C1CCCCC1; NMeD = CN[C@@H](CC(=O)O)C(=O)O; NMeL = CN[C@@H](CC(C)C)C(=O)O; NMePra = C#CC[C@H](NC)C(=O)O; NMeV = CN[C@H](C(=O)O)C(C)C; d(β3hA) = C[C@@H](N)CC(=O)O; NMeS = CN[C@@H](CO)C(=O)O; NMeA = CN[C@@H](C)C(=O)O; NMeAib = CNC(C)(C)C(=O)O; Piperidide = C1CCN(*)CC1; Pra = C#CC[C@H](N)C(=O)O; Ac5c = NC1(C(=O)O)CCCC1; Aze = O=C(O)[C@@H]1CCN1; Ac4c = NC1(C(=O)O)CCC1; CH2CMe2OH = CC(C)(O)C*; Aib = CC(C)(N)C(=O)O; Isopentyl = CC(C)CC*; NEtG = CCNCC(=O)O; Sar = CNCC(=O)O A value given as a limit tells only on which side of the number the result lay.

The test deals with Human pancreatic cancer cell line AsPC-1 (G12D mutation Kras). Put plainly: AsPC-1 cell growth inhibition (AsPC-1 CGI). It is filed as cell-based. The settings on record: read-out: AsPC-1 cell growth inhibition, 50% growth inhibitory concentration (IC50 value); 96 hours, CellTiter-Glo, values classified in ranges. On the technique in general: ATP-based viability assays read luminescence as a measure of living cells.
Experimental: Test compounds were serially dilated with dimethyl sulfoxide, and 200 nL was then dispensed to a U-bottom 96-well plate using Labcyte Echo. […] The cell suspension was dispensed to a. plate containing a test compound at 100 μL per well and incubated at 37° C. in a 5% carbon dioxide gas incubator. 96 hours later, 80 μL of CellTiter-Glo (Promega) was added to each well and fluorescence was measured.
On to `C#CC[C@H]1C(=O)N(C)[C@H](C(=O)N2CCCCC2)CC(=O)N(C)[C@@H](CC(C)C)C(=O)N[C@@H]([C@@H](C)CC)C(=O)N(C)CC(=O)N(C)CC(=O)N(C)[C@@H](CC2CCCCC2)C(=O)N(C)CC(=O)N[C@@H](CCc2ccc(C(F)(F)F)c(Cl)c2)C(=O)N2CCC[C@H]2C(=O)NC2(CCCC2)C(=O)N1C` [Compound 284] ([NMeL]I[Sar][Sar][NMeCha][Sar][hPhe(3-Cl-4-CF3)]P[Ac5c][NMePra][NMeD]-Piperidide; lactam N-11), for which the IC50 was > 500 nM.
The figure for `CC(C)C[C@H]1C(=O)N[C@@H](CCCCC(F)F)C(=O)N(C)CC(=O)N(C)CC(=O)N(C)[C@@H](CC2CCCCC2)C(=O)N(C)CC(=O)N[C@@H](CCc2ccc(C(F)(F)F)c(Cl)c2)C(=O)N2CCC[C@H]2C(=O)NC2(CCCC2)C(=O)N(C)[C@@H](C2CCCCC2)C(=O)N(C)[C@H](C(=O)N2CCCCC2)CC(=O)N1C` [Compound 92] ([NMeL][hNle(7,7-F2)][Sar][Sar][NMeCha][Sar][hPhe(3-Cl-4-CF3)]P[Ac5c][NMeChg][NMeD]-Piperidide; lactam N-11) is > 500 nM.
Consider `CC[C@H](C)[C@@H]1NC(=O)[C@H](C)N(C)C(=O)C[C@@H](C)NC(=O)[C@H](C2CCCC2)N(C)C(=O)C2(CCC2)NC(=O)[C@@H]2CCCN2C(=O)[C@H](CCc2ccc(C(F)(F)F)c(Cl)c2)NC(=O)CN(C)C(=O)[C@H](CC2CCCCC2)N(C)C(=O)CN(C)C(=O)CN(C)C1=O` [Compound 1506] (cyclo([Ac4c][NMeGly(cPent)][d(β3hA)][NMeA]I[Sar][Sar][NMeCha][Sar][hPhe(3-Cl-4-CF3)]P)), for which the IC50 was > 500 nM.
Take `CC[C@H](C)[C@@H]1NC(=O)[C@H](CC(C)C)N(C)C(=O)C[C@@H](C(=O)N2CCCCC2)N(C)C(=O)[C@H](CC(C)C)NC(=O)C(C)(C)N(C)C(=O)[C@H](Cc2ccc(F)cc2)NC(=O)[C@H](Cc2cccc(I)c2)NC(=O)CN(C)C(=O)[C@H](CC2CCCCC2)N(C)C(=O)CN(C)C(=O)CN(C)C1=O` [Compound 711] ([NMeL]I[Sar][Sar][NMeCha][Sar][Phe(3-I)][Phe(4-F)][NMeAib]L[NMeD]-Piperidide; lactam N-11): the IC50 was > 500 nM.
To `CC[C@H](C)[C@@H]1NC(=O)[C@H](CC(C)C)N(C)C(=O)C[C@@H](C(=O)N2CCCCC2)N(C)C(=O)[C@H](CC(C)C)NC(=O)C(C)(C)N(C)C(=O)[C@H](Cc2ccccc2F)NC(=O)[C@H](Cc2cccc(I)c2)NC(=O)CN(C)C(=O)[C@H](Cc2ccc(C)cc2)N(C)C(=O)[C@@H]2CCN2C(=O)CN(C)C1=O` [Compound 638] ([NMeL]I[Sar][Aze][NMePhe(4-Me)][Sar][Phe(3-I)][Phe(2-F)][NMeAib]L[NMeD]-Piperidide; lactam N-11) belongs > 500 nM.
Turning to `CC[C@H](C)[C@@H]1NC(=O)[C@H](CC(C)C)N(C)C(=O)C[C@@H](C)NC(=O)[C@H](C(C)C)N(C)C(=O)C2(CCCC2)NC(=O)[C@@H]2CCCN2C(=O)[C@H](CCc2ccc(C(F)(F)F)c(Cl)c2)NC(=O)CN(C)C(=O)[C@H](Cc2cccc(OC(F)(F)F)c2)N(C)C(=O)CN(C)C(=O)CN(C)C1=O` [Compound 1573] (cyclo([Ac5c][NMeV][d(β3hA)][NMeL]I[Sar][Sar][X49][Sar][hPhe(3-Cl-4-CF3)]P)), the IC50 is > 500 nM.
The figure for `CC[C@H](C)[C@@H]1NC(=O)[C@H](C(C)C)N(C)C(=O)C[C@@H](C)NC(=O)[C@H](CC(C)C)N(C)C(=O)C2(CCCC2)NC(=O)[C@H](CC(C)C)N(C)C(=O)[C@H](CCc2ccc(C(F)(F)F)c(Cl)c2)NC(=O)CN(C)C(=O)[C@H](Cc2ccc(Cl)cc2)N(C)C(=O)[C@@H]2CCN2C(=O)CN(C)C1=O` [Compound 158] (cyclo([Ac5c][NMeL][d(β3hA)][NMeV]I[Sar][Aze][NMePhe(4-Cl)][Sar][hPhe(3-Cl-4-CF3)][NMeL])) is > 500 nM; for `CC[C@H](C)[C@@H]1NC(=O)[C@H](CC(C)C)N(C)C(=O)C[C@@H](C)NC(=O)[C@H](CC(C)C)N(C)C(=O)C(C)(C)NC(=O)[C@H](COCC(C)(C)O)N(C)C(=O)[C@H](CCc2ccc(C(F)(F)F)c(Cl)c2)NC(=O)CN(C)C(=O)[C@H](COCCC(C)C)N(C)C(=O)[C@@H]2CCN2C(=O)CN(CC)C1=O` [Compound 1472] (cyclo([Aib][NMeL][d(β3hA)][NMeL]I[NEtG][Aze][NMeS](Isopentyl)[Sar][hPhe(3-Cl-4-CF3)][NMeS](CH2CMe2OH))) it is > 500 nM; for `C#CC[C@@H]1NC(=O)[C@H](Cc2cccc(I)c2)NC(=O)CN(C)C(=O)[C@H](Cc2ccc(OC)cc2)N(C)C(=O)CN(C)C(=O)CN(C)C(=O)[C@H]([C@@H](C)CC)NC(=O)[C@H](CC(C)C)N(C)C(=O)C[C@@H](C(=O)N2CCCCC2)N(C)C(=O)[C@H](CC(C)C)NC(=O)C(C)(C)N(C)C1=O` [Compound 1169] ([NMeL]I[Sar][Sar][NMeY](Me)[Sar][Phe(3-I)][Pra][NMeAib]L[NMeD]-Piperidide; lactam N-11) it is > 500 nM.
To `CC[C@H](C)[C@@H]1NC(=O)[C@H](CC(C)C)N(C)C(=O)C[C@@H](C(=O)N2CCCCC2)N(C)C(=O)[C@H](C2CCCCC2)N(C)C(=O)C2(CCCC2)NC(=O)[C@@H]2CCCN2C(=O)[C@H](CCc2ccc(C(F)(F)F)c(Cl)c2)NC(=O)CN(C)C(=O)[C@H](C2CC2)N(C)C(=O)CN(C)C(=O)CN(C)C1=O` [Compound 1666] ([NMeL]I[Sar][Sar][NMeGly(cPr)][Sar][hPhe(3-Cl-4-CF3)]P[Ac5c][NMeChg][NMeD]-Piperidide; lactam N-11) belongs > 500 nM.
